This passage reports IC50 results from patent US11939318B2, “LPA receptor antagonists and uses thereof” (Gilead Sciences, Inc., priority 2021, dated 2024).

The structures appear in SMILES notation.

For the assay, the target named is T1, human LPAR1 (Homo sapiens, UniProt Q92633).
T1 construct: host or cells: CHO-K1
As to the kind of experiment: LPAR1 intracellular calcium mobilization assay (antagonist mode, CHO-K1 EDG2 cells, FLIPR). Format: cell-based. Particulars: antagonist activity; CHO-K1 EDG2 cells expressing human LPAR1; 60 min pre-incubation at 37° C., then LPA 18:2 at EC80 concentration (100 nM); test compound 0.5 nM to 10 μM; read-out: LPAR1 (EC50; nM). The protocol:
In vitro LPAR1 activity was measured in an intracellular calcium mobilization assay.
CHO-K1 EDG2 cells (DiscoverX cat #93-0644C2) expressing human LPAR1 (NM_001401.3) were seeded in a total volume of 25 μL of Dulbecco's Modification of Eagle's Medium (DMEM) with 10% Fetal Bovine Serum, 1× PenStrepGlutamine, 300 μg/ml Hygromycin, and 800 μg/ml G418 into 384-well tissue culture plate (Grenier #781091) at 15,000 cells/well and incubated at 37° C. overnight. Prior to testing, 25 μL Calcium Loading Dye Component A (FLIPR Calcium 6 Assay Kit Molecular Device #R8190) and 2.5 mM Probenecid (Invitrogen #P36400, prepared fresh) in Hank's Balanced Salt Solution (Corning #21-023-CV), 20 mM HEPES (Corning #25-060-CI), 0.1% Bovine Serum Albumin (Sigma-Aldrich #A7906-500G) was add to the cells for 60 minutes at 37° C.
Agonist dose curves of LPA 18:2 (Avanti Polar Lipids cat #857138, 0.5 nM to 10 μM) were recorded to determine the LPA 18:2 EC80 for subsequent antagonist assays. For agonist dose curves, cells were removed from the incubator 2 hours after dye loading and transferred to the FLIPR Tetra instrument (Molecular Devices, San Jose, CA). Calcium mobilization was monitored for […] and 10 μL 6× LPA in HBSS/20 mM Hepes/0.1% bovine serum albumin (BSA) was added to the cells 5 seconds into the assay.
To determine the LPAR1 antagonist activity of test compounds, cells were pre-incubated with test compound at a dose range of 0.5 nM to 10 μM, followed by LPA at EC80 concentration (100 nM). After dye loading, cells were removed from the incubator and 0.3 μL of 200X antagonist was added. Cells were incubated for 60 minutes at 37° C. Antagonist activity was measured on a FLIPR Tetra. Calcium mobilization was monitored for 3.5 minutes and 10 μL 6X EC80 LPA in HBSS, 20 mM HEPES, and 0.1% BSA was added to the cells 5 seconds into the assay. Signal amplitude (Maximum minus minimum) values were plotted against log10 of antagonist concentration using Dose Response Tool (Gilead Sciences Inc.) to determine EC50.
The compound numbers correspond to the compound numbers in Examples 1 to13.
On the technique in general: Calcium flux is commonly read through the fluorescence of an indicator in the cells.

T1 sequence (Q92633 whole entry): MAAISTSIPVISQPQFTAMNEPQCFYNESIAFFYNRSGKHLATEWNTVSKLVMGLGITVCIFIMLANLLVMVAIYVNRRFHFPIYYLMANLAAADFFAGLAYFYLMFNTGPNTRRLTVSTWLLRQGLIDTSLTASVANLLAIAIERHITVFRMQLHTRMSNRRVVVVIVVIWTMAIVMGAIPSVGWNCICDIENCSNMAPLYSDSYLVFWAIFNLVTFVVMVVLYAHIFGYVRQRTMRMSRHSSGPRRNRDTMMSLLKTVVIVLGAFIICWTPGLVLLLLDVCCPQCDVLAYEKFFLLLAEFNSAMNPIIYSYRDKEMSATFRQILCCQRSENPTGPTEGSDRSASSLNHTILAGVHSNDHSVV

For the compound `C[C@@H](OC(=O)Nc1c(-c2ccc(NC(=O)C34CC(OS(C)(=O)=O)(C3)C4)cn2)nnn1C)c1cccnc1Cl` [Compound 13, (R)-3-((6-(5-(((1-(2-chloropyridin-3-yl)ethoxy)carbonyl)amino)-1-methyl-1H-1,2,3-triazol-4-yl)pyridin-3-yl)carbamoyl)bicyclo[1.1.1]pentan-1-yl methanesulfonate], the IC50 was determined as 152 nM.

For `Cc1nc(-c2nnn(C)c2NC(=O)O[C@H](C)c2cc(F)cnc2F)ccc1NC(=O)C1(CN)CC(F)(F)C1` [Compound 9, (R)-1-(2,5-difluoropyridin-3-yl)ethyl (4-(5-(1-(aminomethyl)-3,3-difluorocyclobutane-1-carboxamido)-6-methylpyridin-2-yl)-1-methyl-1H-1,2,3-triazol-5-yl)carbamate], the IC50 worked out at 34 nM.

Consider `C[C@@H](OC(=O)Nc1c(-c2ccc(NC(=O)c3ccc(C4CC4)nc3)cn2)nnn1C)c1cc(F)cnc1F` [Compound 6, (R)-1-(2,5-difluoropyridin-3-yl)ethyl (4-(5-(6-cyclopropylnicotinamido)pyridin-2-yl)-1-methyl-1H-1,2,3-triazol-5-yl)carbamate], for which the IC50 came to 176 nM.

With `Cc1nc(-c2nnn(C)c2NC(=O)O[C@H](C)c2cc(F)cnc2F)ccc1NC(=O)c1cnc(C2CC2)o1` [Compound 7, (R)-1-(2,5-difluoropyridin-3-yl)ethyl (4-(5-(2-cyclopropyloxazole-5-carboxamido)-6-methylpyridin-2-yl)-1-methyl-1H-1,2,3-triazol-5-yl)carbamate], the IC50 worked out at 261 nM.

As to `C[C@@H](OC(=O)Nc1c(-c2ccc(NC(=O)c3ccc(C45CC(C4)C5)cc3)cn2)nnn1C)c1cc(F)cnc1F` [Compound 11, (R)-1-(2,5-difluoropyridin-3-yl)ethyl (4-(5-(4-(bicyclo[1.1.1]pentan-1-yl)benzamido)pyridin-2-14)-1-methyl-1H-1,2,3-triazol-5-yl)carbamate], the IC50 came out at 365 nM.

As to `C[C@@H](OC(=O)Nc1c(-c2ccc(NC(=O)c3cnc(-c4cccc(Cl)c4)nc3)cn2)nnn1C)c1cc(F)cnc1F` [Compound 8, (R)-1-(2,5-difluoropyridin-3-yl)ethyl (4-(5-(2-(3-chlorophenyl)pyrimidine-5-carboxamido)pyridin-2-yl)-1-methyl-1H-1,2,3-triazol-5-yl)carbamate], the IC50 is 22 nM.

With `COC1(C(=O)Nc2ccc(-c3nnn(C)c3NC(=O)O[C@H](C)c3cccnc3Cl)nc2)CC1` [Compound 4, (R)-1-(2-chloropyridin-3-yl)ethyl (4-(5-(1-methoxycyclopropane-1-carboxamido)pyridin-2-yl)-1-methyl-1H-1,2,3-triazol-5-yl)carbamate], the IC50 worked out at 1260 nM.

On to `C[C@@H](OC(=O)Nc1c(-c2ccc(NC(=O)C(F)(F)F)cn2)nnn1C)c1cccc(F)c1` [Compound 1, (R)-1-(3-fluorophenyl)ethyl (1-methyl-4-(5-(2,2,2-trifluoroacetamido)pyridin-2-yl)-1H-1,2,3-triazol-5-yl)carbamate], for which the IC50 was 345 nM.

On to `C[C@@H](OC(=O)Nc1c(-c2ccc(NC(=O)C3(C#N)CC3)c(Cl)n2)nnn1C)c1cc(F)cnc1F` [Compound 5, (R)-1-(2,5-difluoropyridin-3-yl)ethyl (4-(6-chloro-5-(1-cyanocyclopropane-1-carboxamido)pyridin-2-yl)-1-methyl-1H-1,2,3-triazol-5-yl)carbamate], for which the IC50 was 186 nM.

Take `CC(=O)Nc1ccc(-c2nnn(C)c2NC(=O)O[C@H](C)c2cc(F)cnc2F)nc1` [Compound 12, (R)-1-(2,5-difluoropyridin-3-yl)ethyl (4-(5-acetamidopyridin-2-yl)-1-methyl-1H-1,2,3-triazol-5-yl)carbamate]: the IC50 worked out at 2050 nM.

For the compound `CC(=O)Nc1ccc(-c2nnn(C)c2NC(=O)O[C@H](CF)c2cccc(F)c2)nc1C` [Compound 2, (S)-2-fluoro-1-(3-fluorophenyl)ethyl (4-(5-acetamido-6-methylpyridin-2-yl)-1-methyl-1H-1,2,3-triazol-5-yl)carbamate], the IC50 came to 37000 nM.

Regarding `C[C@@H](OC(=O)Nc1c(-c2ccc(NC(=O)C3(O)CC3)cn2)nnn1C)c1cccnc1Cl` [Compound 3, (R)-1-(2-chloropyridin-3-yl)ethyl (4-(5-(1-hydroxycyclopropane-1-carboxamido)pyridin-2-yl)-1-methyl-1H-1,2,3-triazol-5-yl)carbamate], the IC50 stood at 2770 nM.

On to `C[C@@H](OC(=O)Nc1c(-c2ccc(NC(=O)C34CC(c5ccccc5)(C3)C4)cn2)nnn1C)c1cc(F)cnc1F` [Compound 10, (R)-1-(2,5-difluoropyridin-3-yl)ethyl (1-methyl-4-(5-(3-phenylbicyclo[1.1.1]pentane-1-carboxamido)pvidin-2-yl)-1H-1,2,3-triazol-5-yl)carbamate], for which the IC50 stood at 13 nM.
